According to PubChem BioAssay (NCI):
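Exposure lasted 48 hours, with cells grown in 96-well plates and compounds tested at five concentrations. Here, GI50 denotes the concentration required for 50% inhibition of growth. TGI: concentration producing complete growth inhibition.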

Legend:
Experiment in all cases: NCI anticancer screen, dose series, 48 h
HOP-92 NSCLC = test system: HOP-92 NSCLC
SN12C renal = test system: SN12C renal
M19-MEL melanoma = test system: M19-MEL melanoma
K-562 leukemia = test system: K-562 leukemia
HOP-62 NSCLC = test system: HOP-62 NSCLC
UACC-257 melanoma = test system: UACC-257 melanoma
SNB-78 CNS = test system: SNB-78 CNS
COLO 205 colon = test system: COLO 205 colon
NCI-H226 lung = test system: NCI-H226 lung
HCT-116 colon = test system: HCT-116 colon
SW-620 colon = test system: SW-620 colon
DMS 114 small cell lung = test system: DMS 114 small cell lung
IGROV1 ovarian = test system: IGROV1 ovarian
HT29 colon = test system: HT29 colon
DLD-1 colon = test system: DLD-1 colon
HCC-2998 colon = test system: HCC-2998 colon
KM12 colon = test system: KM12 colon
CAKI-1 renal = test system: CAKI-1 renal
KM20L2 colon = test system: KM20L2 colon
SF-295 CNS = test system: SF-295 CNS
M14 melanoma = test system: M14 melanoma
OVCAR-3 ovarian = test system: OVCAR-3 ovarian
OVCAR-8 ovarian = test system: OVCAR-8 ovarian
LOX IMVI melanoma = test system: LOX IMVI melanoma
OVCAR-4 ovarian = test system: OVCAR-4 ovarian
HL-60(TB) leukemia = test system: HL-60(TB) leukemia
ACHN renal = test system: ACHN renal
TK-10 renal = test system: TK-10 renal
NCI-H23 lung = test system: NCI-H23 lung
U251 CNS = test system: U251 CNS
SF-268 CNS = test system: SF-268 CNS
A549 NSCLC = test system: A549 NSCLC
DMS 273 small cell lung = test system: DMS 273 small cell lung
SNB-19 CNS = test system: SNB-19 CNS
HOP-18 NSCLC = test system: HOP-18 NSCLC
UO-31 renal = test system: UO-31 renal
MOLT-4 leukemia = test system: MOLT-4 leukemia
EKVX NSCLC = test system: EKVX NSCLC
XF 498 CNS = test system: XF 498 CNS
RPMI-8226 leukemia = test system: RPMI-8226 leukemia
786-0 renal = test system: 786-0 renal
NCI-H460 lung = test system: NCI-H460 lung
SK-MEL-2 melanoma = test system: SK-MEL-2 melanoma
SK-OV-3 ovarian = test system: SK-OV-3 ovarian
MALME-3M melanoma = test system: MALME-3M melanoma
SF-539 CNS = test system: SF-539 CNS
OVCAR-5 ovarian = test system: OVCAR-5 ovarian
SK-MEL-28 melanoma = test system: SK-MEL-28 melanoma
CCRF-CEM leukemia = test system: CCRF-CEM leukemia
A498 renal = test system: A498 renal
HCT-15 colon = test system: HCT-15 colon
NCI-H522 lung = test system: NCI-H522 lung
LXFL 529 NSCLC = test system: LXFL 529 NSCLC
SNB-75 CNS = test system: SNB-75 CNS
UACC-62 melanoma = test system: UACC-62 melanoma
SK-MEL-5 melanoma = test system: SK-MEL-5 melanoma
RXF 393 renal = test system: RXF 393 renal
SR leukemia = test system: SR leukemia

COC(=O)C1=C(C)N(NC(N)=O)C(C)(O)C12CCOC2=O (configuration not stated)
TGI (HOP-92 NSCLC): > 100 µM | TGI (SN12C renal): > 100 µM | TGI (M19-MEL melanoma): > 100 µM | TGI (K-562 leukemia): > 100 µM | TGI (HOP-62 NSCLC): > 100 µM | TGI (UACC-257 melanoma): > 100 µM | TGI (SNB-78 CNS): > 100 µM | TGI (COLO 205 colon): > 100 µM | TGI (NCI-H226 lung): > 100 µM | TGI (HCT-116 colon): > 100 µM | TGI (SW-620 colon): > 100 µM | TGI (DMS 114 small cell lung): > 100 µM | TGI (IGROV1 ovarian): > 100 µM | TGI (HT29 colon): > 100 µM | TGI (DLD-1 colon): > 100 µM | TGI (HCC-2998 colon): 45.1 µM | TGI (KM12 colon): > 100 µM | TGI (CAKI-1 renal): > 100 µM | TGI (KM20L2 colon): > 100 µM | TGI (SF-295 CNS): > 100 µM | TGI (M14 melanoma): > 100 µM | TGI (OVCAR-3 ovarian): > 100 µM | TGI (OVCAR-8 ovarian): > 100 µM | TGI (LOX IMVI melanoma): > 100 µM | TGI (OVCAR-4 ovarian): > 100 µM | TGI (HL-60(TB) leukemia): > 100 µM | TGI (ACHN renal): > 100 µM | TGI (TK-10 renal): > 100 µM | TGI (NCI-H23 lung): > 100 µM | TGI (U251 CNS): > 100 µM | TGI (SF-268 CNS): > 100 µM | TGI (A549 NSCLC): > 100 µM | TGI (DMS 273 small cell lung): > 100 µM | TGI (SNB-19 CNS): > 100 µM | TGI (HOP-18 NSCLC): > 100 µM | TGI (UO-31 renal): > 100 µM | TGI (MOLT-4 leukemia): > 100 µM | TGI (EKVX NSCLC): > 100 µM | TGI (XF 498 CNS): > 100 µM | TGI (RPMI-8226 leukemia): > 100 µM | TGI (786-0 renal): > 100 µM | TGI (NCI-H460 lung): > 100 µM | TGI (SK-MEL-2 melanoma): > 100 µM | TGI (SK-OV-3 ovarian): > 100 µM | TGI (MALME-3M melanoma): > 100 µM | TGI (SF-539 CNS): > 100 µM | TGI (OVCAR-5 ovarian): > 100 µM | TGI (SK-MEL-28 melanoma): > 100 µM | TGI (CCRF-CEM leukemia): > 100 µM | TGI (A498 renal): > 100 µM | TGI (HCT-15 colon): > 100 µM | TGI (NCI-H522 lung): > 100 µM | TGI (LXFL 529 NSCLC): > 100 µM

CCOC(=O)Nn1c(C)cc(C(=O)OC)c1C
TGI (SNB-75 CNS): > 100 µM | TGI (SN12C renal): > 100 µM | TGI (M19-MEL melanoma): > 100 µM | TGI (K-562 leukemia): > 100 µM | TGI (HOP-62 NSCLC): > 100 µM | TGI (UACC-257 melanoma): > 100 µM | TGI (SNB-78 CNS): > 100 µM | TGI (COLO 205 colon): > 100 µM | TGI (NCI-H226 lung): > 100 µM | TGI (HCT-116 colon): > 100 µM | TGI (SW-620 colon): > 100 µM | TGI (DMS 114 small cell lung): > 100 µM | TGI (IGROV1 ovarian): > 100 µM | TGI (HT29 colon): > 100 µM | TGI (DLD-1 colon): > 100 µM | TGI (HCC-2998 colon): > 100 µM | TGI (KM12 colon): > 100 µM | TGI (UACC-62 melanoma): > 100 µM | TGI (SK-MEL-5 melanoma): > 100 µM | TGI (CAKI-1 renal): > 100 µM | TGI (KM20L2 colon): > 100 µM | TGI (RXF 393 renal): > 100 µM | TGI (SF-295 CNS): > 100 µM | TGI (M14 melanoma): > 100 µM | TGI (OVCAR-3 ovarian): > 100 µM | TGI (OVCAR-8 ovarian): > 100 µM | TGI (LOX IMVI melanoma): > 100 µM | TGI (HL-60(TB) leukemia): > 100 µM | TGI (ACHN renal): > 100 µM | TGI (TK-10 renal): > 100 µM | TGI (NCI-H23 lung): > 100 µM | TGI (U251 CNS): > 100 µM | TGI (SF-268 CNS): > 100 µM | TGI (A549 NSCLC): > 100 µM | TGI (DMS 273 small cell lung): > 100 µM | TGI (SNB-19 CNS): > 100 µM | TGI (UO-31 renal): > 100 µM | TGI (MOLT-4 leukemia): > 100 µM | TGI (EKVX NSCLC): > 100 µM | TGI (XF 498 CNS): > 100 µM | TGI (RPMI-8226 leukemia): > 100 µM | TGI (786-0 renal): > 100 µM | TGI (NCI-H460 lung): > 100 µM | TGI (SK-MEL-2 melanoma): > 100 µM | TGI (SK-OV-3 ovarian): > 100 µM | TGI (MALME-3M melanoma): > 100 µM | TGI (SF-539 CNS): > 100 µM | TGI (OVCAR-5 ovarian): > 100 µM | TGI (SK-MEL-28 melanoma): > 100 µM | TGI (CCRF-CEM leukemia): > 100 µM | TGI (A498 renal): > 100 µM | TGI (HCT-15 colon): > 100 µM | TGI (NCI-H522 lung): > 100 µM | TGI (LXFL 529 NSCLC): > 100 µM

N#C[S-].[Ce+3].c1cnc2c(c1)ccc1cccnc12.c1cnc2c(c1)ccc1cccnc12.c1cnc2c(c1)ccc1cccnc12
TGI (HOP-92 NSCLC): 22.7 µM | TGI (SNB-75 CNS): 22.2 µM | TGI (SN12C renal): 13.1 µM | GI50 (M19-MEL melanoma): 0.555 µM | TGI (M19-MEL melanoma): 3.31 µM | TGI (K-562 leukemia): > 100 µM | TGI (HOP-62 NSCLC): 35.7 µM | TGI (UACC-257 melanoma): 18.9 µM | TGI (COLO 205 colon): 13.4 µM | TGI (NCI-H226 lung): 8.24 µM | TGI (HCT-116 colon): 5.5 µM | TGI (SW-620 colon): 46.8 µM | GI50 (DMS 114 small cell lung): 1.64 µM | TGI (DMS 114 small cell lung): 4.52 µM | TGI (IGROV1 ovarian): > 100 µM | TGI (HT29 colon): 23.9 µM | TGI (HCC-2998 colon): 18.9 µM | TGI (KM12 colon): 18.3 µM | TGI (UACC-62 melanoma): 10.1 µM | TGI (SK-MEL-5 melanoma): 15.2 µM | TGI (CAKI-1 renal): 14.3 µM | TGI (SR leukemia): > 100 µM | GI50 (KM20L2 colon): 1.33 µM | TGI (KM20L2 colon): 14.7 µM | TGI (SF-295 CNS): 1.45 µM | TGI (M14 melanoma): 3.42 µM | TGI (OVCAR-3 ovarian): 14.9 µM | TGI (OVCAR-8 ovarian): 17.5 µM | TGI (LOX IMVI melanoma): 10.9 µM | TGI (OVCAR-4 ovarian): 20.5 µM | TGI (HL-60(TB) leukemia): 48.3 µM | TGI (ACHN renal): 11.7 µM | TGI (TK-10 renal): 29.9 µM | TGI (NCI-H23 lung): 75.6 µM | TGI (U251 CNS): 12.6 µM | TGI (A549 NSCLC): 10.1 µM | TGI (SNB-19 CNS): 22.5 µM | GI50 (HOP-18 NSCLC): 1.2 µM | TGI (HOP-18 NSCLC): 7.53 µM | TGI (UO-31 renal): 11.5 µM | TGI (MOLT-4 leukemia): > 100 µM | TGI (EKVX NSCLC): 17.4 µM | GI50 (XF 498 CNS): 3.27 µM | TGI (XF 498 CNS): 8.95 µM | TGI (RPMI-8226 leukemia): > 100 µM | TGI (786-0 renal): 11.1 µM | TGI (SK-OV-3 ovarian): 13.5 µM | TGI (MALME-3M melanoma): 8.84 µM | TGI (SF-539 CNS): 16 µM | TGI (OVCAR-5 ovarian): 16.1 µM | TGI (SK-MEL-28 melanoma): 26.9 µM | TGI (A498 renal): 14.5 µM | TGI (NCI-H522 lung): 21.1 µM | GI50 (LXFL 529 NSCLC): 2.3 µM | TGI (LXFL 529 NSCLC): 24.6 µM
